Measured values published in patent publication US20090123391A1, “Novel Formulations” (3M INNOVATIVE PROPERTIES COMPANY, priority 2006, published 2009).
Values belong to the molecule of their own block, whether it stands above or below them.

Legend:
[1] = Dose Through Unit (DTU) dose uniformity of MDI; type: physicochemical; settings: for overall mean dose of medicament delivered through the actuator, combining beginning and end of use doses: MDI, Compound A 22.5 μg; for overall mean dose of medicament delivered through the actuator, combining beginning and end of use doses / overall mean dose delivered through the actuator, combined beginning and end of use: HFA 134a; for overall mean dose delivered through the actuator, combining beginning and end of use: Example 4: Compound A in combination with Compound D, HFA-134a MDI 100/100 μg/act, target output compound D 90 μg, compound A 90 μg; for overall mean dose delivered through the actuator, combined beginning and end of use: Example 5: Compound E in combination with Compound A, MDI 100/50 μg/act, target output Compound E 90 μg, Compound A 45 μg
Method: The dose collection apparatus (500 ml separatory funnel with a cotton plug) was assembled and the flow rate was set to 20 L/min. Test units were stored at ambient conditions for two weeks after manufacture prior to DTU testing. For the testing at the beginning of the unit, the MDIs were primed two times with a priming actuator and four times to waste with the test actuator, shaking the units between each actuation. Two test actuations were collected in the dose collection apparatus, shaking the unit between actuations. The collection apparatus was rinsed with an appropriate volume of diluent, and the rinsate with the collected dose was analyzed by conventional HPLC analysis. For end of unit testing, the MDIs were actuated an additional 48 times to waste, shaking between each actuation. The MDIs were then actuated four times to waste through a new test actuator. Two test actuations were then collected in the dose collection apparatus, shaking the unit between actuations. The collection apparatus was rinsed with an appropriate volume of diluent, and the rinsate with the collected dose was analyzed by conventional HPLC analysis.
The reported results are the average of ten units at both the beginning and end of unit use.

[2] = Andersen Cascade Impactor (ACI) fine particle fraction of MDI; type: physicochemical; settings: for Fine Particle Fraction expressed as a percentage of the total dose target, for Compound B, 10 μg and for the Compound A, 25 μg: Example 2: Compound A in combination with Compound B; for Fine Particle Fraction expressed as a percentage of the total dose target, for Compound B, 10 μg and for the Compound A, 25 μg / Fine Particle Fraction (FPF) expressed as a percentage of the total dose target, for Compound C, 12.5 μg and for Compound A, 25 μg: MDI; for Fine Particle Fraction expressed as a percentage of the total dose target, for Compound B, 10 μg and for the Compound A, 25 μg / Fine Particle Fraction (FPF) expressed as a percentage of the total dose target, for Compound C, 12.5 μg and for Compound A, 25 μg / Fine Particle Fraction (FPF) expressed as percentage of the total dose target of Compound E, 100 μg and for Compound A, 50 μg: HFA 134a; for Fine Particle Fraction (FPF) expressed as a percentage of the total dose target, for Compound C, 12.5 μg and for Compound A, 25 μg: Example 3: Compound A in combination with Compound C, 25/12.5 μg/act; for Fine Particle Fraction (FPF) expressed as a percentage of the total dose target, for Compound D, 100 μg, and for Compound A, 100 μg: Example 4: Compound A in combination with Compound D, HFA-134a MDI 100/100 μg/act; for Fine Particle Fraction (FPF) expressed as percentage of the total dose target of Compound E, 100 μg and for Compound A, 50 μg: Example 5: Compound E in combination with Compound A, MDI 100/50 μg/act
Text: The fine particle fraction of the aerosol formulations according to the invention may be measured by conventional techniques, for example, by cascade impaction by measuring particle size distribution. The Cascade Impactor is designed to mimic the human buccal cavity and bronchial tract and the cascade Impactor test is designed to reveal the amount of deposition of inhaled drug substance at various stages thereof. As used herein reference to the “cascade impaction” assay means determination of the deposition of the emitted dose in pressurised inhalations as defined in European Pharmacopoeia, Section 2.9.18, 5th edition “Preparations for Inhalation, Apparatus D”. Such techniques enable the “respirable fraction” of the aerosol formulations to be calculated. One method used to calculate the “respirable fraction” is by reference to “fine particle fraction” which is the amount of active ingredient collected in stages 3 to 5 (aerodynamic diameter 1.1-4.7 μm) which represents the lung, per actuation expressed as a percentage of the total amount of active ingredient delivered per actuation using the cascade impactor method described above. Earlier stages represent the aerosol device itself, the throat and the upper reaches of the bronchial tract, and the later stages representing potential systemic absorption through the wall of the lung which may cause serious side effects.
The Andersen Cascade Impactor Mark II (ACI) was assembled and the flow rate was set to 28.3 L/min. The units were primed four times with the test actuator prior to dose collection, shaking between actuations. Between 5 and 20 actuations were collected in the ACI assembly. The ACI was disassembled and the components were rinsed with an appropriate amount of solvent that ensures dissolution of all formulation ingredients. The rinsate was collected for analysis by conventional HPLC analysis.

[3] = 0.1% w/w of polymer of formula (II), 12 Week at 40° C./75% relative humidity
[4] = 0.1% w/w of polymer of formula (II), Initial

- overall mean dose of medicament delivered through the actuator, combining beginning and end of use doses ([1]; Example 2: Compound A in combination with Compound B, 25/10 μg/act, 0.1% w/w of polymer of formula (II), 12 Week at 40° C./75% relative humidity, target output Compound B 8.5 μg): 99%
- overall mean dose of medicament delivered through the actuator, combining beginning and end of use doses ([1]; Example 2: Compound A in combination with Compound B, 25/10 μg/act, 0.1% w/w of polymer of formula (II), Initial, target output Compound B 8.5 μg): 98%
- overall mean dose of medicament delivered through the actuator, combining beginning and end of use doses ([1]; Example 2: Compound A in combination with Compound B, 25/10 μg/act, surfactant-free, 12 Week at 40° C./75% relative humidity, target output Compound B 8.5 μg): 73%
- overall mean dose of medicament delivered through the actuator, combining beginning and end of use doses ([1]; Example 2: Compound A in combination with Compound B, 25/10 μg/act, surfactant-free, Initial, target output Compound B 8.5 μg): 71%
- Fine Particle Fraction expressed as a percentage of the total dose target, for Compound B, 10 μg and for the Compound A, 25 μg [2, 3]: 26%
- Fine Particle Fraction expressed as a percentage of the total dose target, for Compound B, 10 μg and for the Compound A, 25 μg [2, 4]: 25%
- Fine Particle Fraction expressed as a percentage of the total dose target, for Compound B, 10 μg and for the Compound A, 25 μg ([2]; surfactant-free, 12 Week at 40° C./75% relative humidity): 21%
- Fine Particle Fraction expressed as a percentage of the total dose target, for Compound B, 10 μg and for the Compound A, 25 μg ([2]; surfactant-free, Initial): 20%
Structure (SMILES): O=CNc1cc([C@@H](O)CNCCc2ccc(NC[C@H](O)c3ccccc3)cc2)ccc1O [Compound B]

- overall mean dose of medicament delivered through the actuator, combining beginning and end of use doses ([1]; Example 3: Compound A in combination with Compound C, 25/12.5 μg/act, 0.1% w/w polymer of formula (II), 12 Week at 40° C./75 relative humidity, target output Compound C 11.3 μg): 112%
- overall mean dose of medicament delivered through the actuator, combining beginning and end of use doses ([1]; Example 3: Compound A in combination with Compound C, 25/12.5 μg/act, 0.1% w/w polymer of formula (II), Initial, target output Compound C 11.3 μg): 96%
- overall mean dose of medicament delivered through the actuator, combining beginning and end of use doses ([1]; Example 3: Compound A in combination with Compound C, 25/12.5 μg/act, surfactant-free, 12 Week at 40° C./75 relative humidity, target output Compound C 11.3 μg): 90%
- overall mean dose of medicament delivered through the actuator, combining beginning and end of use doses ([1]; Example 3: Compound A in combination with Compound C, 25/12.5 μg/act, surfactant-free, Initial, target output Compound C 11.3 μg): 80%
- Fine Particle Fraction (FPF) expressed as a percentage of the total dose target, for Compound C, 12.5 μg and for Compound A, 25 μg ([2]; 0.1% w/w polymer of formula (II), 12 Week 40° C./75 relative humidity): 25%
- Fine Particle Fraction (FPF) expressed as a percentage of the total dose target, for Compound C, 12.5 μg and for Compound A, 25 μg ([2]; 0.1% w/w polymer of formula (II), Initial): 28%
- Fine Particle Fraction (FPF) expressed as a percentage of the total dose target, for Compound C, 12.5 μg and for Compound A, 25 μg ([2]; surfactant-free, 12 Week 40° C./75 relative humidity): 21%
- Fine Particle Fraction (FPF) expressed as a percentage of the total dose target, for Compound C, 12.5 μg and for Compound A, 25 μg ([2]; surfactant-free, Initial): 14%
Structure (SMILES): NS(=O)(=O)c1cccc(CCCCOCCCCCCNC[C@H](O)c2ccc(O)c(CO)c2)c1 [Compound C, 3-(4-{[6-({(2R)-2-hydroxy-2-[4-hydroxy-3-(hydroxymethyl)-phenyl]ethyl}amino)hexyl]oxy}butyl)benzenesulfonamide]

- overall mean dose delivered through the actuator, combining beginning and end of use [1, 3]: 104%
- overall mean dose delivered through the actuator, combining beginning and end of use [1, 4]: 101%
- Fine Particle Fraction (FPF) expressed as a percentage of the total dose target, for Compound D, 100 μg, and for Compound A, 100 μg [2, 3]: 27%
- Fine Particle Fraction (FPF) expressed as a percentage of the total dose target, for Compound D, 100 μg, and for Compound A, 100 μg [2, 4]: 32%
Structure (SMILES): OCc1cc([C@@H](O)CNCCCCCCOCCOCc2c(Cl)cccc2Cl)ccc1O [Compound D, 4-{(1R)-2-[(6-{2-[(2,6-dichlorobenzyl)oxy]ethoxy}hexyl)amino]-1-hydroxyethyl}-2-(hydroxymethyl) phenol]

- overall mean dose delivered through the actuator, combined beginning and end of use [1, 3]: 106%
- overall mean dose delivered through the actuator, combined beginning and end of use [1, 4]: 104%
- Fine Particle Fraction (FPF) expressed as percentage of the total dose target of Compound E, 100 μg and for Compound A, 50 μg [2, 3]: 28%
- Fine Particle Fraction (FPF) expressed as percentage of the total dose target of Compound E, 100 μg and for Compound A, 50 μg [2, 4]: 26%
Structure (SMILES): COc1ccc(Nc2ccc(CCNCC(O)c3ccc(O)c4[nH]c(=O)ccc34)cc2)cc1-c1ccccc1 (stereo not drawn) [Compound E, N-{2-[4-(3-phenyl-4-methoxyphenyl)aminophenyl]ethyl}-2-hydroxy-2-(8-hydroxy-2(1H)-quinolinon-5-yl)ethylamine]
